From patent US10265284B2, “Composition for use in the treatment of intervertebral disc-related pain” (STAYBLE THERAPEUTICS AB, priority 2015, dated 2019)

Assays:
Type in all cases: in vivo, pig
[1] = test system: nucleus pulposus of the L3-4 intervertebral disc; assay: Flexion stiffness of the injected L3-4 intervertebral disc, Example 1; details: injected L 3-4 vs non-injected L 2-3 and L 4-5; seven days
Description: Access to the L4-5 intervertebral disc was obtained through a lateral incision between the lowest rib and the iliac crest on the left side of each pig. Thereafter, the L3-4 intervertebral disc was incised with a scalpel. […] The composition was injected in a single step at a single occasion.

[2] = test system: nucleus pulposus of the L3-4 intervertebral disc; assay: Dimension of the disc space after injection, Example 1
Description: 110. performing a cross-section of the discs and measuring the length (anterio-posterior direction) and the width (bilateral direction) of the disc space. Two pigs were anesthetized and placed on their right side. Access to the L4-5 intervertebral disc was obtained through a lateral incision between the lowest rib and the iliac crest on the left side of each pig. Thereafter, the L3-4 intervertebral disc was incised with a scalpel. […] The composition was injected in a single step at a single occasion. The intervertebral discs (L2-3, L3-4, L4-5) were cross-sectioned and the length of the disc space (anterio-posterior direction) and the width (bilateral direction) of the disc space were measured by calipers. In FIGS. 5 and 6, an intervertebral disc is schematically shown in cross-section. The intervertebral disc comprises the annulus fibrosus 10, and a disc space defined by the annulus fibrosus and comprising the nucleus pulposus 11.

[3] = Tolerability and adverse reactions after intradiscal injection, Example 1
Description: Two pigs were anesthetized and placed on their right side. Access to the L4-5 intervertebral disc was obtained through a lateral incision between the lowest rib and the iliac crest on the left side of each pig. Thereafter, the L3-4 intervertebral disc was incised with a scalpel.
The composition was injected in a single step at a single occasion.
At harvest, the pigs were killed.
The injection site was observed by the naked eye. […] The segment of the vertebral column extending from the lumbar vertebra L2 to the sacral vertebra S1 was removed. The facet joints were removed, thus allowing full flexibility of the discs with no restraints from other structures.

[4] = injected L 3-4 vs non-injected L2-3, L4-5, seven days

CC(O)C(=O)O (stereo not drawn) [lactic acid]
Balanced value (flexion stiffness) of injected discs compared with non-injected adjacent discs [1]: much smaller balanced value
Cross-sectional area of the disc space compared with non-injected discs ([2]; FIG. 7, injected L3-4 vs non-injected L2-3 and L4-5, naked eye): much smaller cross-sectional area
Average anterio-posterior length of the disc space compared with non-injected discs [2, 4]: significantly lower
Average bilateral width of the disc space compared with non-injected discs [2, 4]: significantly lower
Adverse reaction such as decreased mobility or vocalization ([3]; both pigs, period of seven days until harvest, 0.2 mL of 1.34 mol/L, pH 1.8, into L3-4 disc): no adverse reaction
Adverse reaction at the injection site, such as bleedings, inflammation or necrosis ([3]; naked eye at harvest, seven days after injection): No adverse reaction at the injection site
